Key:
[1] = biological target: T1, PTPN2 (HiBIT-PTPN2 in 293T.109 cells) (Homo sapiens, UniProt P17706); assay: HiBiT Degradation 293T.109 PTPN2 (Nano-Glo HiBiT Lytic Assay); assay type: cell-based; settings: 24.0 hours
T1 construct: expressed in transfected cells; host or cells: 293T.109 (293T WT from ATCC)
T1 sequence (P17706 1-415): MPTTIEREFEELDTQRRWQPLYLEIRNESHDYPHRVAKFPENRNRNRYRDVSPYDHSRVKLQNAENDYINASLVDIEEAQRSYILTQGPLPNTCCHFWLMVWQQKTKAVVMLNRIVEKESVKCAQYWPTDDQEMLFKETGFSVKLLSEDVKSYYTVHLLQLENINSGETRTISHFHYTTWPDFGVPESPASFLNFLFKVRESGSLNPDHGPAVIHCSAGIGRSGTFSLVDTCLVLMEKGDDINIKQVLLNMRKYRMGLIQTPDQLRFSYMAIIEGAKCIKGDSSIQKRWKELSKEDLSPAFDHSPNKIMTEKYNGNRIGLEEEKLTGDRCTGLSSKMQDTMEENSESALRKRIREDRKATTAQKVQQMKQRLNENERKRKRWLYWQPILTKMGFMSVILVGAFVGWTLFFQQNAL
Method in brief: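 Degradation read-out: lytic HiBiT luminescence after 24 h treatment (37 °C, 5% CO2) of 5000 293T cells per well expressing HiBiT-fused PTPN2 from an N-terminal tag. Dosing was 11 points, half-log steps down from 10 μM, in duplicate; vehicle-treated and no-reagent wells served as controls.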

PTPN2 (B16F10.4 cells) = biological target: T2, PTPN2 (B16F10.4 cells) (Mus musculus, UniProt Q06180); assay: HiBiT Degradation B16F10.4 PTPN2; assay type: cell-based; settings: 24.0 hours
T2 construct: HiBiT; host or cells: B16F10.4
T2 sequence (Q06180 1-406): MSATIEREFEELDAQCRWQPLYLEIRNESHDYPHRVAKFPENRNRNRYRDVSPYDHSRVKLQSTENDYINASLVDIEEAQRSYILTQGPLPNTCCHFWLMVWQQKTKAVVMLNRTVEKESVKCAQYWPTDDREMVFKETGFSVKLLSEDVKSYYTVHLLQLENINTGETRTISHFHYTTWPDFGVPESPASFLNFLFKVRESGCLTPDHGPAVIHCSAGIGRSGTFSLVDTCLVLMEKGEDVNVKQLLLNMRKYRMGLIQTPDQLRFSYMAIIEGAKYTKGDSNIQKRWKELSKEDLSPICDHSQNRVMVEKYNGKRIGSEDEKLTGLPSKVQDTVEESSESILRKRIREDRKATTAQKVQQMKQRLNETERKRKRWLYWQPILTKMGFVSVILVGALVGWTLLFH

Row | DC50 [1] | DC50 (PTPN2 (B16F10.4 cells)) | SMILES
1 | 0.2 to 1 µM | ≥ 1 µM | CC(Nc1cccc2c1CN(C1CCC(=O)NC1=O)C2=O)C(=O)NCCCCCCC(=O)Nc1cccc(CS(=O)(=O)N2CCC(Nc3cccc(-c4sc(C(=O)O)c(OCC(=O)O)c4Cl)c3)CC2)c1 (stereo not drawn) [Example 26, 3-(carboxymethoxy)-4-chloro-5-[3-[[1-[[3-[7-[2-[[2-(2,6-dioxo-3-piperidyl)-1-oxo-isoindolin-4-yl]amino]propanoylamino]heptanoylamino]phenyl]methylsulfonyl]-4-piperidyl]amino]phenyl]thiophene-2-carboxylic acid]
2 | < 0.05 µM | 0.05 to 0.2 µM | Cn1c(=O)n(C2CCC(=O)NC2=O)c2ccc(Nc3ccc(C(=O)Nc4cccc(CS(=O)(=O)N5CC[C@H](Nc6cccc(-c7sc(C(=O)O)c(OCC(=O)O)c7Cl)c6)CC5(C)C)c4)cc3)cc21 (stereo partly drawn) [Example 144]
3 | 0.05 to 0.2 µM | 0.2 to 1 µM | CC1(C)C[C@@H](Nc2cccc(-c3sc(C(=O)O)c(OCC(=O)O)c3Cl)c2)CCN1S(=O)(=O)Cc1cccc(NC(=O)C2CCN(C(=O)CNc3cccc4c3C(=O)N(C3CCC(=O)NC3=O)C4=O)CC2)c1 (stereo partly drawn) [Example 32, 3-(carboxymethoxy)-4-chloro-5-[3-[[(4S)-1-[[3-[[1-[2-[[2-(2,6-dioxo-3-piperidyl)-1,3-dioxo-isoindolin-4-yl]amino]acetyl]piperidine-4-carbonyl]amino]phenyl]methylsulfonyl]-2,2-dimethyl-4-piperidyl]amino]phenyl]thiophene-2-carboxylic acid]
4 | 0.2 to 1 µM | 0.2 to 1 µM | Cn1c(=O)n(C2CCC(=O)NC2=O)c2cccc(OC3CCN(C(=O)Nc4cccc(CS(=O)(=O)N5CC[C@H](Nc6cccc(-c7sc(C(=O)O)c(OCC(=O)O)c7Cl)c6)CC5(C)C)c4)CC3)c21 (stereo partly drawn) [Example 151]
5 | 0.05 to 0.2 µM | ≥ 1 µM | O=C(O)COc1c(C(=O)O)sc(-c2cccc(NC3CCN(S(=O)(=O)Cc4ccc(F)c(NC(=O)C5CCN(C(=O)CNc6cccc7c6CN(C6CCC(=O)NC6=O)C7=O)CC5)c4)CC3)c2)c1Cl (stereo not drawn) [Example 77]
6 | 0.2 to 1 µM | ≥ 1 µM | CN(C(=O)C1CCN(C(=O)CNc2cccc3c2CN(C2CCC(=O)NC2=O)C3=O)CC1)c1cccc(CS(=O)(=O)N2CC[C@@H](Nc3cccc(-c4sc(C(=O)O)c(OCC(=O)O)c4Cl)c3)CC2(C)C)c1 (stereo partly drawn) [Example 66, 3-(carboxymethoxy)-4-chloro-5-(3-(((4R)-1-((3-(1-((2-(2,6-dioxopiperidin-3-yl)-1-oxoisoindolin-4-yl)glycyl)-N-methylpiperidine-4-carboxamido)benzyl)sulfonyl)-2,2-dimethylpiperidin-4-yl)amino)phenyl)thiophene-2-carboxylic acid]
7 | 0.2 to 1 µM | ≥ 1 µM | O=C(O)COc1c(C(=O)O)sc(-c2cccc(NC3CCN(S(=O)(=O)Cc4cccc(NC(=O)CCCCCNC(=O)CNc5cccc6c5CN(C5CCC(=O)NC5=O)C6=O)c4)CC3)c2)c1Cl (stereo not drawn) [Example 21, 3-(carboxymethoxy)-4-chloro-5-(3-((1-((3-(6-(2-((2-(2,6-dioxopiperidin-3-yl)-1-oxoisoindolin-4-yl)amino)acetamido)hexanamido)benzyl)sulfonyl)piperidin-4-yl)amino)phenyl)thiophene-2-carboxylic acid]
8 | < 0.05 µM | < 0.05 µM | Cn1c(=O)n(C2CCC(=O)NC2=O)c2ccc(C3CCN(C(=O)Nc4cccc(CS(=O)(=O)N5CC[C@H](Nc6cccc(-c7sc(C(=O)O)c(OCC(=O)O)c7Cl)c6)CC5(C)C)c4)CC3F)cc21 (stereo partly drawn) [Example 170, 3-(carboxymethoxy)-4-chloro-5-[3-[[(4S)-1-[[3-[[4-[1-(2,6-dioxo-3-piperidyl)-3-methyl-2-oxo-benzimidazol-5-yl]-3-fluoro-piperidine-1-carbonyl]amino]phenyl]methylsulfonyl]-2,2-dimethyl-4-piperidyl]amino]phenyl]thiophene-2-carboxylic acid]
9 | 0.05 to 0.2 µM | 0.05 to 0.2 µM | Cn1c(=O)n(C2CCC(=O)NC2=O)c2ccc(N3CCC(N4CCN(c5cccc(CS(=O)(=O)N6CC[C@H](Nc7cccc(-c8sc(C(=O)O)c(OCC(=O)O)c8Cl)c7)CC6(C)C)c5)C4=O)CC3)cc21 (stereo partly drawn) [Example 198, 3-(carboxymethoxy)-4-chloro-5-[3-[[(4S)-1-[3-[3-[[1-[1-(2,6-dioxo-3-piperidyl)-3-methyl-2-oxo-benzimidazol-5-yl]-4-piperidyl]-2-oxo-imidazolidin-1-yl]phenyl]methylsulfonyl]-2,2-dimethyl-4-piperidyl]amino]phenyl]thiophene-2-carboxylic acid]
10 | 0.05 to 0.2 µM | 0.05 to 0.2 µM | Cn1c(=O)n(C2CCC(=O)NC2=O)c2ccc(N3CC4(CCN(C(=O)Nc5cccc(CS(=O)(=O)N6CCC(Nc7cccc(-c8sc(C(=O)O)c(OCC(=O)O)c8Cl)c7)CC6)c5)CC4)C3)cc21 (stereo not drawn) [Example 113, 3-(carboxymethoxy)-4-chloro-5-[3-[[1-[[3-[[2-[1-(2,6-dioxo-3-piperidyl)-3-methyl-2-oxo-benzimidazol-5-yl]-2,7-diazaspiro[3.5]nonane-7-carbonyl]amino]phenyl]methylsulfonyl]-4-piperidyl]amino]phenyl]thiophene-2-carboxylic acid]
11 | 0.2 to 1 µM | 0.2 to 1 µM | O=C(O)COc1c(C(=O)O)sc(-c2cccc(NC3CCN(S(=O)(=O)Cc4cccc(NC(=O)CN5CCC(c6ccc7c(c6)CN(C6CCC(=O)NC6=O)C7=O)CC5)c4)CC3)c2)c1Cl (stereo not drawn) [Example 45]
12 | 0.2 to 1 µM | 0.2 to 1 µM | CC1(C)C[C@@H](Nc2cccc(-c3sc(C(=O)O)c(OCC(=O)O)c3Cl)c2)CCN1S(=O)(=O)Cc1cccc(NC(=O)CCCCCCNC(=O)CNc2cccc3c2CN(C2CCC(=O)NC2=O)C3=O)c1 (stereo partly drawn) [Example 18, 3-(carboxymethoxy)-4-chloro-5-(3-(((4S)-1-((3-(7-(2-((2-(2,6-dioxopiperidin-3-yl)-1-oxoisoindolin-4-yl)amino)acetamido)heptanamido)benzyl)sulfonyl)-2,2-dimethylpiperidin-4-yl)amino)phenyl)thiophene-2-carboxylic acid]
13 | 0.05 to 0.2 µM | 0.05 to 0.2 µM | CC1(C)C[C@@H](Nc2cccc(-c3sc(C(=O)O)c(OCC(=O)O)c3Cl)c2)CCN1S(=O)(=O)Cc1cccc(NC(=O)[C@H]2CC[C@@H](c3ccc4c5c(cccc53)C(=O)N4C3CCC(=O)NC3=O)CC2)c1 (stereo partly drawn) [Example 166, 3-(carboxymethoxy)-4-chloro-5-(3-(((4S)-1-((3-((1s,4R)-4-(1-(2,6-dioxopiperidin-3-yl)-2-oxo-1,2-dihydrobenzo[cd]indol-6-yl)cyclohexane-1-carboxamido)benzyl)sulfonyl)-2,2-dimethylpiperidin-4-yl)amino)phenyl)thiophene-2-carboxylic acid]
14 | < 0.05 µM | < 0.05 µM | Cn1c(=O)n([C@H]2CCC(=O)NC2=O)c2ccc(C3CCN(C(=O)Nc4cccc(CS(=O)(=O)N5CC[C@H](Nc6cccc(-c7sc(C(=O)O)c(OCC(=O)O)c7Cl)c6)CC5(C)C)c4)CC3)cc21 (single isomer, unassigned) [Example 234]
15 | 0.2 to 1 µM | ≥ 1 µM | O=C(O)COc1c(C(=O)O)sc(-c2cccc(NC3CCN(S(=O)(=O)Cc4cccc(NC(=O)CCOCCNC(=O)CNc5ccc6c(c5)C(=O)N(C5CCC(=O)NC5=O)C6=O)c4)CC3)c2)c1Cl (stereo not drawn) [Example 24, 3-(carboxymethoxy)-4-chloro-5-[3-[[1-[[3-[3-[2-[[2-[[2-(2,6-dioxo-3-piperidyl)-1,3-dioxo-isoindolin-5-yl]amino]acetyl]amino]ethoxy]propanoylamino]phenyl]methylsulfonyl]-4-piperidyl]amino]phenyl]thiophene-2-carboxylic acid]

Source: patent US20250302815A1, “PROTEIN TYROSINE PHOSPHATASE TARGETING LIGANDS” (CALICO LIFE SCIENCES LLC, priority 2021, published 2025)
